IC50, EC50 and CC50 data for 17 compounds are collected here from US20220227737A1, “NOVEL OXALYL PIPERAZINES ACTIVE AGAINST THE HEPATITIS B VIRUS (HBV)” (AiCuris GmbH & Co. KG, priority 2019, published 2022).

Some results are limits rather than exact numbers.

For data set [1], the target named is T1, C-terminal truncated core protein (HBV core dimer, BODIPY-FL labelled) (UniProt P03146).
T1 construct: fused on or other part: One added cysteine at position 150, labelled with BODIPY-FL maleimide; The C-terminal arginine-rich domain is absent
T1 sequence (P03146 whole entry, the tested form may be a part): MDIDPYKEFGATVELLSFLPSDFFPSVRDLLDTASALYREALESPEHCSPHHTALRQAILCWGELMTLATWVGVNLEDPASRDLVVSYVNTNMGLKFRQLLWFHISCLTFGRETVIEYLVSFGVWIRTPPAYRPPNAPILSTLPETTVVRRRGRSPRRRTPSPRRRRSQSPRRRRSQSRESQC
Nature of the data set: Biochemical capsid assembly assay (fluorescence quenching). As for the experimental part:
Biochemical Capsid Assembly Assay
The screening for assembly effector activity was done based on a fluorescence quenching assay published by Zlotnick et al. (2007). The C-terminal truncated core protein containing 149 amino acids of the N-terminal assembly domain fused to a unique cysteine residue at position 150 and was expressed in E. coli using the pET expression system (Merck Chemicals, Darmstadt). Purification of core dimer protein was performed using a sequence of size exclusion chromatography steps. In brief, the cell pellet from 1 L BL21 (DE3) Rosetta2 culture expressing the coding sequence of core protein cloned NdeI/XhoI into expression plasmid pET21b was treated for 1 h on ice with a native lysis buffer (Qproteome Bacterial Protein Prep Kit; Qiagen, Hilden). After a centrifugation step the supernatant was precipitated during 2 h stirring on ice with 0.23 g/ml of solid ammonium sulfate. Following further centrifugation the resulting pellet was resolved in buffer A (100 mM Tris, pH 7.5; 100 mM NaCl; 2 mM DTT) and was subsequently loaded onto a buffer A equilibrated CaptoCore 700 column (GE HealthCare, Frankfurt). The column flow through containing the assembled HBV capsid was dialyzed against buffer N (50 mM NaHCO3 pH 9.6; 5 mM DTT) before urea was added to a final concentration of 3M to dissociate the capsid into core dimers for 1.5 h on ice. The protein solution was then loaded onto a 1 L Sephacryl 5300 column. After elution with buffer N core dimer containing fractions were identified by SDS-PAGE and subsequently pooled and dialyzed against 50 mM HEPES pH 7.5; 5 mM DTT. To improve the assembly capacity of the purified core dimers a second round of assembly and disassembly starting with the addition of 5 M NaCl and including the size exclusion chromatography steps described above was performed. From the last chromatography step core dimer containing fractions were pooled and stored in aliquots at concentrations between 1.5 to 2.0 mg/ml at −80° C.
Immediately before labelling the core protein was reduced by adding freshly prepared DTT in a final concentration of 20 mM. After 40 min incubation on ice storage buffer and DTT was removed using a Sephadex G-25 column (GE HealthCare, Frankfurt) and 50 mM HEPES, pH 7.5. For labelling 1.6 mg/ml core protein was incubated at 4° C. and darkness overnight with BODIPY-FL maleimide (Invitrogen, Karlsruhe) in a final concentration of 1 mM. After labelling the free dye was removed by an additional desalting step using a Sephadex G-25 column. Labelled core dimers were stored in aliquots at 4° C. In the dimeric state the fluorescence signal of the labelled core protein is high and is quenched during the assembly of the core dimers to high molecular capsid structures. The screening assay was performed in black 384 well microtiter plates in a total assay volume of 10 μl using 50 mM HEPES pH 7.5 and 1.0 to 2.0 μM labelled core protein. Each screening compound was added in 8 different concentrations using a 0.5 log-unit serial dilution starting at a final concentration of 100 μM, 31.6 μM or 10 μM, In any case the DMSO concentration over the entire microtiter plate was 0.5%. The assembly reaction was started by the injection of NaCl to a final concentration of […] which induces the assembly process to approximately 25% of the maximal quenched signal. […] after starting the reaction the fluorescence signal was measured using a Clariostar plate reader (BMG Labtech, Ortenberg) with an excitation of 477 nm and an emission of 525 nm. As 100% and 0% assembly control HEPES buffer containing 2.5 M and 0 M NaCl was used. Experiments were performed thrice in triplicates. EC50 values were calculated by non-linear regression analysis using the Graph Pad Prism 6 software (GraphPad Software, La Jolla, USA).

In the next data set the test system is HBV. Nature of the data set: HBV replication assay: HBV DNA from the supernatants of HepAD38 cells. The class given is cell-based. Particulars: Hepatitis B virus, 144 h, HBV DNA in supernatant at day 6, read-out: Cell Activity. The protocol: Determination of HBV DNA from the Supernatants of HepAD38 Cells
The anti-HBV activity was analysed in the stable transfected cell line HepAD38, which has been described to secrete high levels of HBV virion particles (Ladner et al., 1997). In brief, HepAD38 cells were cultured at 37° C. at 5% CO2 and 95% humidity in 200 μl maintenance medium, which was Dulbecco's modified Eagle's medium/Nutrient Mixture F-12 (Gibco, Karlsruhe), 10% fetal bovine serum (PAN Biotech Aidenbach) supplemented with 50 μg/ml penicillin/streptomycin (Gibco, Karlsruhe), 2 mM L-glutamine (PAN Biotech, Aidenbach), 400 μg/ml G418 (AppliChem, Darmstadt) and 0.3 μg/ml tetracycline. Cells were subcultured once a week in a 1:5 ratio, but were usually not passaged more than ten times. For the assay 60,000 cells were seeded in maintenance medium without any tetracycline into each well of a 96-well plate and treated with serial half-log dilutions of test compound. To minimize edge effects the outer 36 wells of the plate were not used but were filled with assay medium. On each assay plate six wells for the virus control (untreated HepAD38 cells) and six wells for the cell control (HepAD38 cells treated with 0.3 μg/ml tetracycline) were allocated, respectively. In addition, one plate set with reference inhibitors like BAY 41-4109, entecavir, and lamivudine instead of screening compounds were prepared in each experiment. In general, experiments were performed thrice in triplicates. At day 6 HBV DNA from 100 μl filtrated cell culture supernatant (AcroPrep Advance 96 Filter Plate, […] Supor membran, PALL GmbH, Dreieich) was automatically purified on the MagNa Pure LC instrument using the MagNA Pure 96 DNA and Viral NA Small Volume Kit (Roche Diagnostics, Mannheim) according to the instructions of the manufacturer. EC50 values were calculated from relative copy numbers of HBV DNA In brief, 5 μl of the 100 μl eluate containing HBV DNA were subjected to PCR LC480 Probes Master Kit (Roche) together with 1 μM antisense primer […], 0.5 μM sense primer […], 0.3 μM hybprobes […]-FL and LC640-[…]-PH (TIBMolBiol, Berlin) to a final volume of […]. The PCR was performed on the Light Cycler 480 real time system (Roche Diagnostics, Mannheim) using the following protocol: Pre-incubation for 1 min at 95° C., amplification: 40 cycles×(10 sec at 95° C., 50 sec at 60° C., 1 sec at 70° C.), cooling for 10 sec at 40° C. Viral load was quantitated against known standards using HBV plasmid DNA of pCH-9/3091 (Nassal et al., 1990, Cell 63: 1357-1363) and the LightCycler 480 SW 1.5 software (Roche Diagnostics, Mannheim) and EC50 values were calculated using non-linear regression with GraphPad Prism 6 (GraphPad Software Inc., La Jolla, USA).

The nature of data set [2]: Cell viability assay (AlamarBlue). Particulars: human, HepAD38 cells.

For `CC(O)CNC(=O)C(=O)N1CCN(C(=O)c2cc3ccccc3[nH]2)CC1` (stereo not drawn) [Example 28, 2-(4-(1H-indole-2-carbonyl)piperazin-1-yl)-N-(2-hydroxypropyl)-2-oxoacetamide], the IC50 – broadly, the concentration that gives 50% inhibition – in data set [1] was below 5 µM. The EC50 in the data set on HBV was below 1 µM. Further, in data set [2], the CC50 (as a rule, the concentration at which the toxic effect on the cells reaches its halfway point) at 6 days is above 100 µM.
With `O=C(Nc1cccc(Br)c1)C(=O)N1CCN(C(=O)c2cc3ccccc3[nH]2)CC1` [Example 1, N-(3-bromophenyl)-2-[4-(1H-indole-2-carbonyl)piperazin-1-yl]-2-oxoacetamide], in the data set on HBV, the EC50 was 1 to 10 µM.
Consider `CCCCNC(=O)C(=O)N1CCN(C(=O)c2cc3c(F)cccc3[nH]2)CC1` [Example 26, N-butyl-2-(4-(4-fluoro-1H-indole-2-carbonyl)piperazin-1-yl)-2-oxoacetamide], for which the IC50 in data set [1] was below 5 µM. In addition, in the data set with HBV, the EC50 is below 1 µM. Besides, the CC50 at 6 days in data set [2] was above 100 µM.
In turn, `CC1(CNC(=O)C(=O)N2CCN(C(=O)c3cc4ccccc4[nH]3)CC2)CCOC1` (stereo not drawn) [Example 12, 2-[4-(1H-indole-2-carbonyl)piperazin-1-yl]-N-[(3-methyloxolan-3-yl)methyl]-2-oxoacetamide] showed a half-maximal inhibitory concentration (IC50) in data set [1] below 5 µM. For the same compound, in the data set on HBV, the EC50 was below 1 µM. This compound yielded a CC50 at 6 days in data set [2] above 100 µM.
The compound `O=C(NCC1CCOC1)C(=O)N1CCN(C(=O)c2cc3ccccc3[nH]2)CC1` (stereo not drawn) [Example 4, 2-(4-(1H-indole-2-carbonyl)piperazin-1-yl)-2-oxo-N-((tetrahydrofuran-3-yl)methyl)acetamide] returned an IC50 in data set [1] below 100 µM. Further, the EC50 with HBV is 1 to 10 µM. This compound displayed a CC50 at 6 days in data set [2] above 100 µM.
In turn, `O=C(NCCCCO)C(=O)N1CCN(C(=O)c2cc3c(F)cc(F)cc3[nH]2)CC1` [Example 62, 2-(4-(4,6-difluoro-1H-indole-2-carbonyl)piperazin-1-yl)-N-(4-hydroxybutyl)-2-oxoacetamide] displayed an IC50 in data set [1] below 5 µM. In the data set on HBV, the EC50 was below 1 µM. The CC50 at 6 days in data set [2] was above 100 µM.
In data set [1], `CCCCNC(=O)C(=O)N1CCN(C(=O)c2cc3cccc(F)c3[nH]2)CC1` [Example 25, N-butyl-2-(4-(7-fluoro-1H-indole-2-carbonyl)piperazin-1-yl)-2-oxoacetamide] displayed an IC50 below 5 µM. Further, the EC50 in the data set with HBV was below 1 µM. For the same compound, the CC50 at 6 days in data set [2] is above 100 µM.
As for `CCCCNC(=O)C(=O)N1CCN(C(=O)c2cc3c(F)cc(F)cc3[nH]2)CC1` [Example 9, N-butyl-2-(4-(4,6-difluoro-1H-indole-2-carbonyl)piperazin-1-yl)-2-oxoacetamide], in data set [1], the IC50 is below 5 µM. For the same compound, the EC50 with HBV is below 1 µM. Also, the CC50 at 6 days in data set [2] was above 100 µM.
`COC1(CNC(=O)C(=O)N2CCN(C(=O)c3cc4ccccc4[nH]3)CC2)CC1` [Example 13, 2-(4-(1H-indole-2-carbonyl)piperazin-1-yl)-N-((1-methoxycyclopropyl)methyl)-2-oxoacetamide] returned an IC50 in data set [1] of 5 to 10 µM. Moreover, the EC50 in the data set with HBV was below 1 µM. In data set [2], this compound had a CC50 at 6 days above 100 µM.
Taken in the same sequence, the figures for `O=C(NCC1(O)CC1)C(=O)N1CCN(C(=O)c2cc3c(F)cc(F)cc3[nH]2)CC1` [Example 53, 2-(4-(4,6-difluoro-1H-indole-2-carbonyl)piperazin-1-yl)-N-((1-hydroxycyclopropyl)methyl)-2-oxoacetamide] were below 5 µM, below 1 µM and above 100 µM.
Consider `CC(C)(CCO)CNC(=O)C(=O)N1CCN(C(=O)c2cc3c(F)cc(F)cc3[nH]2)CC1` [Example 61, 2-(4-(4,6-difluoro-1H-indole-2-carbonyl)piperazin-1-yl)-N-(4-hydroxy-2,2-dimethylbutyl)-2-oxoacetamide], for which, in data set [1], the half-inhibitory concentration (IC50) was below 5 µM. The EC50 with HBV was below 1 µM. The compound also came in with a CC50 at 6 days in data set [2] above 100 µM.
Taken in the same sequence, the figures for `CCC(CCO)CNC(=O)C(=O)N1CCN(C(=O)c2cc3c(F)cc(F)cc3[nH]2)CC1` (stereo not drawn) [Example 59, 2-(4-(4,6-difluoro-1H-indole-2-carbonyl)piperazin-1-yl)-N-(2-ethyl-4-hydroxybutyl)-2-oxoacetamide] were below 5 µM, below 1 µM and above 100 µM.
For the compound `C[C@H](O)CNC(=O)C(=O)N1CCN(C(=O)c2cc3c(F)cc(F)cc3[nH]2)CC1` [Example 58, (S)-2-(4-(4,6-difluoro-1H-indole-2-carbonyl)piperazin-1-yl)-N-(2-hydroxypropyl)-2-oxoacetamide], the 50% inhibitory concentration (IC50) in data set [1] is below 5 µM. In the data set with HBV, the EC50 is below 1 µM. The compound also came in with a 50% cytotoxic concentration (CC50) at 6 days in data set [2] above 100 µM.
`CC(C)(C)NC(=O)C(=O)N1CCN(C(=O)c2cc3cc(F)c(Cl)cc3[nH]2)CC1` [Example 45, N-(tert-butyl)-2-(4-(6-chloro-5-fluoro-1H-indole-2-carbonyl)piperazin-1-yl)-2-oxoacetamide] showed an IC50 in data set [1] of 5 to 10 µM.
Turning to `CCCCNC(=O)C(=O)N1CCN(C(=O)c2cc3cccc(C)c3[nH]2)CC1` [Example 24, N-butyl-2-(4-(7-methyl-1H-indole-2-carbonyl)piperazin-1-yl)-2-oxoacetamide], the EC50 in the data set with HBV was below 1 µM. For the same compound, in data set [2], the CC50 at 6 days was above 100 µM.
`NC(=O)C1(CNC(=O)C(=O)N2CCN(C(=O)c3cc4ccccc4[nH]3)CC2)CCC1` [Example 20, 1-((2-(4-(1H-indole-2-carbonyl)piperazin-1-yl)-2-oxoacetamido)methyl)cyclobutane-1-carboxamide] gave a concentration for half-maximal inhibition (IC50) in data set [1] below 100 µM.
On the same count and under the same terms, in the case of `CC(C)(CC(F)(F)F)NC(=O)C(=O)N1CCN(C(=O)c2cc3ccccc3[nH]2)CC1` [Example 69, 2-[4-(1H-indole-2-carbonyl)piperazin-1-yl]-2-oxo-N-(4,4,4-trifluoro-2-methylbutan-2-yl)acetamide] it was below 5 µM.
